We go through 50 molecules from patent US8604038B2, “Pyrrolidine derived beta 3 adrenergic receptor agonists” (Merck Sharp & Dohme Corp., priority 2009, dated 2013).

For one experiment, the target named is T1, human β3 adrenergic receptor (Homo sapiens, UniProt P13945).
T1 construct: expressed in transfected cells; host or cells: CHO (Chinese hamster ovary) cells, stably transfected
T1 sequence (P13945 whole entry): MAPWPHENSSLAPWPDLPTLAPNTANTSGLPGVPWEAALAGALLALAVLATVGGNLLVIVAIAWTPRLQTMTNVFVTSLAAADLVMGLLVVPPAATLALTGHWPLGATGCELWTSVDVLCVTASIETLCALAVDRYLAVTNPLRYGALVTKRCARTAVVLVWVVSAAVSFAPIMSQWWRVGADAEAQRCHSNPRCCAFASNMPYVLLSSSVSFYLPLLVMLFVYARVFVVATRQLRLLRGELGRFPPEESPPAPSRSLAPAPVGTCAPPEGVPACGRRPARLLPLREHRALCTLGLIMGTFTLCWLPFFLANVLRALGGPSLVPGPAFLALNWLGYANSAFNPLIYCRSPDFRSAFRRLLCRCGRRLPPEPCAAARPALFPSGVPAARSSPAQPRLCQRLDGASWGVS
Description: Beta-3 agonist in vitro functional assay (cAMP production, LANCE, transfected CHO cells). Type of experiment: cell-based. Particulars: Table 1, CHO cells with cloned β3 receptor, ligands titrated 10^-10 M to 10^-5 M, read-out: Human β3 agonist functional activity. As for the experimental part:
Functional Assay: For compounds in examples 1-50, cAMP production in response to ligand is measured according to Barton, et al. (1991, Agonist-induced desensitization of D2 dopamine receptors in human Y-79 retinoblastoma cells. Mol. Pharmacol. […]:650-658) modified as follows. The cAMP production is measured using a homogenous time-resolved fluorescence resonance energy transfer immunoassay (LANCE™, Perkin Elmer) according to the manufacture's instructions. Chinese hamster ovary (CHO) cells, stably transfected with the cloned β-adrenergic receptor (β1, β2 or β3) are harvested after 3 days of subculturing. Harvesting of cells is done with Enzyme-free Dissociation Media (Specialty Media). Cells are then counted and resuspended in assay buffer (Hank's Balanced salt solution supplemented with 5 mM HEPES, […]) containing a phosphodiesterase inhibitor (IBMX, 0.6 mM). The reaction is initiated by mixing 6,000 cells in 6 μL with 6 μL Alexa Fluor labeled cAMP antibody (LANCE™ kit) which is then added to an assay well containing 12 μL of compound (diluted in assay buffer to 2× final concentration). The reaction proceeds for 30 minutes at RT and is terminated by the addition of 24 ul detection buffer (LANCE™ kit). The assay plate is then incubated for 1 h at RT and time-resolved fluorescence measured on a Perkin Elmer Envision reader or equivalent. The unknown cAMP level is determined by comparing fluorescence levels to a cAMP standard curve.
The non-selective, full agonist β-adrenergic ligand isoproterenol is used at all three receptors to determine maximal stimulation. The human β3 adrenergic receptor (AR) selective ligand (S)-N-[4-[2-[[2-hydroxy-3-(4-hydroxyphenoxy)propyl]amino]ethyl]-phenyl]-4-iodobenzenesulfonamide is used as a control in all assays. […] The EC50 is defined as the concentration of compound that gives 50% activation of its own maximum. Data are analyzed using Microsoft Excel and Graphpad Prism or an internally developed data analysis software package.
The EC50 is defined as the concentration of compound that gives 50% activation of its own maximum. Functional antagonist assays are performed similar to described above; however, unknown ligands are titrated at β-adrenergic receptor subtypes 1 and 2 at a final concentration in the assay of 10^-12 M to 10^-5 M in the presence of 10^-9 M full agonist β-adrenergic ligand isoproterenol. The EC50 is defined as the concentration of compound that gives 50% inhibition of the full agonist response. Data are analyzed using Microsoft Excel and Graphpad Prism or an internally developed data analysis software package.
In general terms: Cyclic AMP is a second messenger, typically raised through Gs and lowered through Gi signalling.
As for `Cc1nc(CNC(=O)c2ccc(C[C@@H]3CC[C@H]([C@H](O)c4ccccc4)N3)cc2)cs1` [Example 27], the EC50 fell in the range of 10 to 99.9 nM.

For the molecule `COC(=O)c1ccnc(CNC(=O)c2ccc(C[C@@H]3CC[C@H]([C@H](O)c4ccccc4)N3)cc2)c1` [Example 7], the EC50 fell in the range of 10 to 99.9 nM.

Consider `O=C(NCc1nc2ccccc2s1)c1ccc(C[C@@H]2CC[C@H]([C@H](O)c3cccnc3)N2)cc1` [Example 41], for which the EC50 was 10 to 99.9 nM.

With `O=C(NCc1cc(-c2ccccc2)no1)c1ccc(C[C@@H]2CC[C@H]([C@H](O)c3ccc[n+]([O-])c3)N2)cc1` [Example 31], the EC50 lay within 100 to 999 nM.

As for `Cc1cc(C)nc(CNC(=O)c2ccc(C[C@@H]3CC[C@H]([C@H](O)c4ccccc4)N3)cc2)n1` [Example 3], the EC50 fell in the range of 10 to 99.9 nM.

For the molecule `O=C(NCc1cccc(Cl)n1)c1ccc(C[C@@H]2CC[C@H]([C@H](O)c3ccccc3)N2)cc1` [Example 6], the EC50 lay within 10 to 99.9 nM.

With `O=C(NCc1cc2ccccc2cn1)c1ccc(C[C@@H]2CC[C@H]([C@H](O)c3ccccc3)N2)cc1` [Example 45], the EC50 lay in the range of 10 to 99.9 nM.

Consider `O=C(NCc1nc2ccncc2[nH]1)c1ccc(C[C@@H]2CC[C@H]([C@H](O)c3ccccc3)N2)cc1` [Example 38], for which the EC50 lay in the range of 1 to 9.9 nM.

With `Cc1cccc(CNC(=O)c2ccc(C[C@@H]3CC[C@H]([C@H](O)c4ccccc4)N3)cc2)n1` [Example 17], the EC50 lay in the range of 100 to 999 nM.

With `Cc1nccnc1CNC(=O)c1ccc(C[C@@H]2CC[C@H]([C@H](O)c3ccccc3)N2)cc1` [Example 20], the EC50 is 10 to 99.9 nM.

Regarding `O=C(NCc1ccccn1)c1ccc(C[C@@H]2CC[C@H]([C@H](O)c3ccccc3)N2)cc1` [Example 2], the EC50 lay in the range of 10 to 99.9 nM.

`O=C(NCc1nc(C(F)(F)F)cc(=O)[nH]1)c1ccc(C[C@@H]2CC[C@H]([C@H](O)c3ccccc3)N2)cc1` [Example 28]: the EC50 fell in the range of 10 to 99.9 nM.

`O=C(NCc1cnccn1)c1ccc(C[C@@H]2CC[C@H]([C@H](O)c3ccccc3)N2)cc1` [Example 10]: the EC50 is 100 to 999 nM.

For the molecule `O=C(NCc1ncccc1F)c1ccc(C[C@@H]2CC[C@H]([C@H](O)c3ccccc3)N2)cc1` [Example 4], the EC50 lay in the range of 10 to 99.9 nM.

Regarding `O=C(NCc1nc2ccncc2[nH]1)c1ccc(C[C@@H]2CC[C@H]([C@H](O)c3cccnc3)N2)cc1` [Example 39], the EC50 was 10 to 99.9 nM.

`Cc1ccnc(CNC(=O)c2ccc(C[C@@H]3CC[C@H]([C@H](O)c4ccccc4)N3)cc2)n1` [Example 18]: the EC50 lay within 10 to 99.9 nM.

Turning to `O=C(NCc1nccc2ccccc12)c1ccc(C[C@@H]2CC[C@H]([C@H](O)c3cccnc3)N2)cc1` [Example 43], the EC50 is 10 to 99.9 nM.

Still in this experiment, the particulars now being: Table 3, CHO cells with cloned β3 receptor, ligands titrated 10^-12 M to 10^-5 M, read-out: Human β3 agonist functional activity.
As to `CN(Cc1cccnn1)C(=O)c1ccc(C[C@@H]2CC[C@H]([C@H](O)c3ccc(N)nc3)N2)cc1` [Example 56], the EC50 is 10 to 99.9 nM.

As for `CN(Cc1cnn(-c2ccccc2)c1)C(=O)c1ccc(C[C@@H]2CC[C@H]([C@H](O)c3ccccc3)N2)cc1` [Example 97], the EC50 is 10 to 99.9 nM.

Take `COCCCN(Cc1cccnn1)C(=O)c1ccc(C[C@@H]2CC[C@H]([C@H](O)c3ccccc3)N2)cc1` [Example 131]: the EC50 was 100 to 999 nM.

For `CN(Cc1cc2ccccc2cn1)C(=O)c1ccc(C[C@@H]2CC[C@H]([C@H](O)c3ccccc3)N2)cc1` [Example 52], the EC50 fell in the range of 100 to 999 nM.

Take `CN(Cc1ccon1)C(=O)c1ccc(C[C@@H]2CC[C@H]([C@H](O)c3ccccc3)N2)cc1` [Example 86]: the EC50 was in the range of 10 to 99.9 nM.

On to `CN(Cc1cc(Br)ccn1)C(=O)c1ccc(C[C@@H]2CC[C@H]([C@H](O)c3ccccc3)N2)cc1` [Example 57], for which the EC50 fell in the range of 10 to 99.9 nM.

On to `CCN(Cc1ccccn1)C(=O)c1ccc(C[C@@H]2CC[C@H]([C@H](O)c3ccccc3)N2)cc1` [Example 121], for which the EC50 lay within 100 to 999 nM.

As to `CN(Cc1noc(C2CC2)n1)C(=O)c1ccc(C[C@@H]2CC[C@H]([C@H](O)c3ccccc3)N2)cc1` [Example 112], the EC50 lay within 10 to 99.9 nM.

Consider `CN(Cc1cnc2ccccc2n1)C(=O)c1ccc(C[C@@H]2CC[C@H]([C@H](O)c3ccccc3)N2)cc1` [Example 61], for which the EC50 lay in the range of 1 to 9.9 nM.

As for `CC(c1cccnc1)N(C)C(=O)c1ccc(C[C@@H]2CC[C@H]([C@H](O)c3ccccc3)N2)cc1` (some centres unmarked) [Example 128], the EC50 was 1 to 9.9 nM.

`Cc1cccnc1CN(C)C(=O)c1ccc(C[C@@H]2CC[C@H]([C@H](O)c3ccccc3)N2)cc1` [Example 62]: the EC50 lay in the range of 10 to 99.9 nM.

For `COCc1cc(CN(C)C(=O)c2ccc(C[C@@H]3CC[C@H]([C@H](O)c4ccccc4)N3)cc2)n[nH]1` [Example 90], the EC50 was under 1 nM.

`CN(Cc1ncc(Cl)cn1)C(=O)c1ccc(C[C@@H]2CC[C@H]([C@H](O)c3ccccc3)N2)cc1` [Example 125]: the EC50 is 100 to 999 nM.

For the molecule `CN(Cc1nn(C)c(Cl)c1Cl)C(=O)c1ccc(C[C@@H]2CC[C@H]([C@H](O)c3ccccc3)N2)cc1` [Example 75], the EC50 fell in the range of 1 to 9.9 nM.

Consider `CC(C)c1nc(CCN(C)C(=O)c2ccc(C[C@@H]3CC[C@H]([C@H](O)c4ccccc4)N3)cc2)no1` [Example 89], for which the EC50 is 10 to 99.9 nM.

As for `CC(C1COc2ccccc2O1)N(C)C(=O)c1ccc(C[C@@H]2CC[C@H]([C@H](O)c3ccccc3)N2)cc1` (single isomer, unassigned) [Example 95], the EC50 lay within 100 to 999 nM.

Consider `CN(CCC1CCCCO1)C(=O)c1ccc(C[C@@H]2CC[C@H]([C@H](O)c3ccccc3)N2)cc1` (some centres unmarked) [Example 119], for which the EC50 is 100 to 999 nM.

`CN(CCC1CCOCC1)C(=O)c1ccc(C[C@@H]2CC[C@H]([C@H](O)c3ccccc3)N2)cc1` [Example 99]: the EC50 lay in the range of 100 to 999 nM.

With `CN(C(=O)c1ccc(C[C@@H]2CC[C@H]([C@H](O)c3ccccc3)N2)cc1)C1CCOC1` (some centres unmarked) [Example 117], the EC50 lay in the range of 100 to 999 nM.

Regarding `COCCN(C)C(=O)c1ccc(C[C@@H]2CC[C@H]([C@H](O)c3ccccc3)N2)cc1` [Example 64], the EC50 lay in the range of 10 to 99.9 nM.

Regarding `CN(Cc1csc(N)n1)C(=O)c1ccc(C[C@@H]2CC[C@H]([C@H](O)c3ccccc3)N2)cc1` [Example 132], the EC50 was 100 to 999 nM.

Take `CC(C)c1nccc(CN(C)C(=O)c2ccc(C[C@@H]3CC[C@H]([C@H](O)c4ccccc4)N3)cc2)n1` [Example 80]: the EC50 was in the range of 1 to 9.9 nM.

As to `COc1ccccc1CN(C)C(=O)c1ccc(C[C@@H]2CC[C@H]([C@H](O)c3ccccc3)N2)cc1` [Example 65], the EC50 was in the range of 10 to 99.9 nM.

As for `Cc1cc(CN(C)C(=O)c2ccc(C[C@@H]3CC[C@H]([C@H](O)c4ccccc4)N3)cc2)on1` [Example 82], the EC50 was 10 to 99.9 nM.

With `CN(Cc1nccn1C)C(=O)c1ccc(C[C@@H]2CC[C@H]([C@H](O)c3ccccc3)N2)cc1` [Example 76], the EC50 was in the range of 100 to 999 nM.

Consider `CN(Cc1ccncn1)C(=O)c1ccc(C[C@@H]2CC[C@H]([C@H](O)c3ccccc3)N2)cc1` [Example 79], for which the EC50 fell in the range of 100 to 999 nM.

On to `CN(CCc1cccnc1)C(=O)c1ccc(C[C@@H]2CC[C@H]([C@H](O)c3ccccc3)N2)cc1` [Example 53], for which the EC50 was in the range of 10 to 99.9 nM.

As to `CN(Cc1nc2ccccc2[nH]1)C(=O)c1ccc(C[C@@H]2CC[C@H]([C@H](O)c3ccccc3)N2)cc1` [Example 84], the EC50 is 100 to 999 nM.

On to `Cc1csc(CN(C)C(=O)c2ccc(C[C@@H]3CC[C@H]([C@H](O)c4ccccc4)N3)cc2)n1` [Example 123], for which the EC50 lay within 100 to 999 nM.

With `CN(Cc1ncccc1F)C(=O)c1ccc(C[C@@H]2CC[C@H]([C@H](O)c3ccccc3)N2)cc1` [Example 106], the EC50 lay within 10 to 99.9 nM.

Turning to `Cc1nc(CN(C)C(=O)c2ccc(C[C@@H]3CC[C@H]([C@H](O)c4ccccc4)N3)cc2)cs1` [Example 66], the EC50 lay within 10 to 99.9 nM.

The experiment is the same for the next values; noted with them: given as a range, CHO cells with cloned β3 receptor, read-out: human Beta-3 agonist functional activity.
In the case of `O=C(NCc1nc(-c2ccccc2)n[nH]1)c1ccc(C[C@@H]2CC[C@H]([C@H](O)c3ccccc3)N2)cc1` [Example 1, 4-({(2S,5R)-5-[(R)-hydroxy(phenyl)methyl]pyrolidin-2-yl}methyl)-N-[(3-phenyl-1H-1,2,4-triazol-5-yl)methyl]benzamide], the EC50 was 1 to 9.9 nM.

With `CN(Cc1ccccc1F)C(=O)c1ccc(C[C@@H]2CC[C@H]([C@H](O)c3ccccc3)N2)cc1` [Example 135, N-(2-fluorobenzyl)-4-({(2S,5R)-5-[(R)-hydroxy(phenyl)methyl]pyrrolidin-2-yl}methyl)-N-methylbenzamide], the EC50 lay within 10 to 99.9 nM.
